Among the data in the NIST ThermoML archive (doi:10.1016/j.fluid.2014.01.022) are mass density, Normal boiling temperature and refractive index values, retold here.

Numbers after ± are expanded uncertainties.

The conditions of data set [1]: Liquid; for mass density: 298.15 K, 101.33 kPa, Vibrating tube method; for Normal boiling temperature: Ebulliometric method (Recirculating still).
Data set [2] can be described thus: refractive index (Na D-line) (dimensionless). The conditions noted are these: 298.15 K; 101.3 kPa; Liquid; Standard Abbe refractometry.

For `COCC(C)O` (stereo not given) [1-methoxy-2-propanol], in data set [1], the mass density was found to be 916.5 ± 0.2 kg/m3 and the Normal boiling temperature stood at 120.2 ± 1 °C. In data set [2], the refractive index was 1.4024 ± 0.0007.

On to `COCC(C)OC(C)=O` (stereo not given) [1-methoxy-2-propyl acetate], for which, in data set [1], the mass density stood at 963 ± 0.2 kg/m3 and the Normal boiling temperature was 146 ± 1 °C. Moreover, the refractive index in data set [2] amounted to 1.4 ± 0.0007.

Turning to `CO` [methanol], in data set [1], the mass density worked out at 786.9 ± 0.2 kg/m3 and the Normal boiling temperature is 64.6 ± 1 °C. Besides, the refractive index in data set [2] amounted to 1.3269 ± 0.0007.

Regarding `COC(C)=O` [methyl ethanoate], in data set [1], the mass density is recorded as 927.5 ± 0.2 kg/m3 and the Normal boiling temperature was determined as 57.2 ± 1 °C. Moreover, the refractive index in data set [2] was 1.3596 ± 0.0007.

Regarding `CC(C)O` [propan-2-ol], in data set [1], the mass density is recorded as 781.4 ± 0.2 kg/m3 and the Normal boiling temperature amounted to 82.5 ± 1 °C. For the same compound, the refractive index in data set [2] is listed as 1.375 ± 0.0007.

The term mass density denotes mass per unit of volume. One may read the refractive index as the speed of light in vacuum divided by its phase velocity in the sample.
